According to patent US20150065524A1, “KINASE INHIBITOR POLYMORPHS” (Intellikine LLC, priority 2011, published 2015):

What was measured:
Assay type in all cases: physicochemical
[1] = Stability testing: storage at 40° C./75% RH or 25° C./97% RH, reanalysis by XRPD; details: for Stability at 40° C./75% RH: salts of Formula I, salt screening; for Solid form after storage at 40° C./75% relative humidity: 8 days storage; for Stability at 40° C./75% RH, reanalysis by XRPD: stored at 40° C./75% RH, after 7 days, 21 days and 35 days; for Solid form by XRPD after storage at 40° C./75% RH: 7 days, samples of entries 38, 39, 41, 42
Procedure: A sample of J00439 was stored at 40° C./75% RH. […] Thus this solid form (which will be referred to as Form A) was stable to accelerated stability testing conditions. Note that some variations in XRPD peak intensity were observed over time.
Samples of entries 38, 39, 41, and 42 were stored at 40° C./75% RH. […]

Heating to about 100° C. = test: Heating to about 100° C.
[2] = Stability testing: storage at 40° C./75% RH or 25° C./97% RH, reanalysis by XRPD; details: 8 days storage
[3] = Gravimetric Vapour Sorption (GVS); details: for Solid form by XRPD after the GVS experiment: material recovered after GVS; for Weight lost during the first sorption cycle (GVS): from 40 to 90% RH
From the text: There was no hysteresis. The material is non-hygroscopic.
The sample was non-hygroscopic, with only 0.16% weight gain in the first sorption cycle.

[4] = Drying of the solids under vacuum, reanalysis by XRPD; details: for Solid form after drying: vacuum oven at 40° C. overnight, XRPD and 1H NMR
Procedure: A sample of each solid was dried in a vacuum oven at 40° C. overnight, then the samples were reanalysed by XRPD and ^1H NMR.
Approximately 20 mg of compound of Formula I (Form A) were weighed into vials, and 150 microliters of solvent system were added. The vials were agitated at 50° C., 5° C., or cycled between room temperature and 50° C. for 4 to 5 days. Solids were isolated by filtration and characterized by XRPD and thermal analysis. From acetone/5% water at 5° C., a hydrate was isolated (see FIGS. 15 and 16). […] From dimethylacetamide (DMA) cycled between room temperature and 50° C. for 5 days, a solvate was isolated (see FIGS. 17 and 18). […] Inclusion of 10% or more water with DMA prevented formation of DMA solvate.

## 1,2-Ethane disulfonic acid
[1]
  Stability at 40° C./75% RH: Stable for 7 days

## CC(C)n1nc(-c2ccc3oc(N)nc3c2)c2c(N)ncnc21 [DMA solvate]
[1]
  Solid form after storage at 40° C./75% relative humidity: converted to Form A
Heating to about 100° C.
  Solid form after heating: converted to Form A
[2]
  Solid form after storage at 25° C./97% relative humidity: converted to Form A

## CC(C)n1nc(-c2ccc3oc(N)nc3c2)c2c(N)ncnc21 [Form A, 5-(4-amino-1-isopropyl-1H-pyrazolo[3,4-d]pyrimidin-3-yl)benzo[d]oxazol-2-Amine]
[1]
  Stability at 40° C./75% RH, reanalysis by XRPD: stable
[1]; listed as J00439
  Stability at 40° C./75% RH, reanalysis by XRPD: still pattern A
[3]
  Hygroscopicity by GVS: non-hygroscopic
  Solid form by XRPD after the GVS experiment: still pattern A
[3]; whole GVS experiment
  GVS weight change over the whole experiment: 0.1%

## CC(C)n1nc(-c2ccc3oc(N)nc3c2)c2c(N)ncnc21 [Form B]
[1]
  Solid form by XRPD after storage at 40° C./75% RH: turned into Form A
[3]; first sorption cycle
  Weight lost during the first sorption cycle (GVS): 28 % wt
[3]
  Solid form by XRPD after the GVS experiment: desolvated to Form A
[4]
  Solid form after drying: only partially desolvated

## CC(C)n1nc(-c2ccc3oc(N)nc3c2)c2c(N)ncnc21 [Form C]
[1]
  Solid form by XRPD after storage at 40° C./75% RH: still of Form C
[3]
  Hygroscopicity by GVS: non-hygroscopic
  Solid form by XRPD after the GVS experiment: still Form C
[3]; between 90 and 0% RH
  Weight loss on desorption (GVS): 0.38%
[3]; first sorption cycle
  Weight gain in the first sorption cycle (GVS): 0.16%
[4]
  Solid form after drying: stable on drying

## CC(C)n1nc(-c2ccc3oc(N)nc3c2)c2c(N)ncnc21 [Form E]
[1]
  Solid form by XRPD after storage at 40° C./75% RH: turned into Form A
[3]; first sorption cycle
  Weight lost during the first sorption cycle (GVS): 28 % wt
[3]
  Solid form by XRPD after the GVS experiment: turned to Form A
[4]
  Solid form after drying: desolvated to Form A

## CC(C)n1nc(-c2ccc3oc(N)nc3c2)c2c(N)ncnc21 [hydrate]
[1]
  Solid form after storage at 40° C./75% relative humidity: converted to Form A
[3]
  Solid form by XRPD after the GVS experiment: converted to Form A
[4]; vacuum drying
  Solid form after vacuum drying: converted to Form A
Heating to about 100° C.
  Solid form after heating: converted to Form A
[2]
  Solid form after storage at 25° C./97% relative humidity: converted to Form A

## Cc1ccc(S(=O)(=O)O)cc1 [p-Toluene sulfonic acid]
[1]
  Stability at 40° C./75% RH: Changes pattern after 3 days,

## Ethane sulfonic acid
[1]
  Stability at 40° C./75% RH: Deliquescent

## Maleic acid
[1]
  Stability at 40° C./75% RH: Stable for 7 days

## Methane sulfonic acid
[1]
  Stability at 40° C./75% RH: Deliquescent
